Read-outs that look alike come from different tables or passages of the source.
System: eNOS promoter
Assay: Activation of eNOS transcription (eNOS promoter-luciferase reporter gene assay)
Format: cell-based, human
Settings: for maximal fold induction: read-out: TIR (max)
Procedure: Measurement of activation of eNOS transcription Activation of eNOS transcription was measured as described in detail in Li et al. “Activation of protein kinase C alpha and/or epsilon enhances transcription of the human endothelial nitric oxide synthase gene”, Mol. Pharmacol. 1998; 53: 630-637. Briefly, a 3.5 kB long fragment 5′ of the starting codon of the eNOS gene was cloned, sequenced and cloned in firefly luciferase expression plasmids to monitor activation of the eNOS promoter by reporter gene activity. A human endothelial cell line stable transfected and expressing this promoter-reporter construct was used for compound testing. Cells were incubated for 18 h with compounds. All compounds were dissolved in sterile DMSO. A final concentration of 0.5% DMSO in complete medium was allowed. Induction of reporter gene expression in these cells was measured using a standard luciferase assay system (Promega, Cat. No E150) according to the manufacturer's instructions. Luciferase induction in cells incubated with compounds were compared to those incubated with solvent alone. The ratio of both activities (transcription induction ratio, TIR) was plotted as a function of compound concentration. […] EC50 values of transcription induction ratios as a function of compound concentration were determined graphically.

[1] = Homo sapiens, 18 h, maximum transcription induction ratio (luciferase with compound / solvent alone), 18 h incubation
[2] = Homo sapiens, Endothelial cell, 18 h, EC50 of transcription induction ratio, determined graphically, human endothelial cell line, 18 h incubation, read-out: EC-50

Structure (SMILES)	EC50 [2] [µM]	EC50 (EC50 of transcription induction ratio, determined graphically, human endothelial cell line, 18 h incubation, read-out: EC-50) [µM]	maximal fold induction [1]	maximal fold induction (Homo sapiens, 18 h)	EC50 (Homo sapiens, Endothelial cell, 18 h) [µM]
O=C(NC1Cc2ccccc2C1)c1ccc(Br)s1 [Compound 41, 5-BROMO-THIOPHEN-2-CARBOXYLIC ACID-INDAN-2-YLAMIDE]	0.18	–	2.4	–	–
Cc1cc(C(=O)NC2Cc3ccccc3C2)c(C)s1 [Compound 368, 2,5-DIMETHYL-THIOPHENE-3-CARBOXYLIC ACID INDAN-2-YLAMIDE]	17	–	2.5	–	–
O=C(NC1Cc2ccccc2C1)c1ccc(-n2ccnc2)cc1 [Compound 328, 4-IMIDAZOL-1-YL-N-INDAN-2-YL-BENZAMIDE]	24	–	2.4	–	–
O=C(NC1Cc2ccccc2C1)c1sc2cc(F)ccc2c1Cl [Compound 324, 3-CHLORO-6-FLUORO-BENZO[B]THIOPHENE-2-CARBOXYLIC ACID INDAN-2-YLAMIDE]	2.1	–	1.7	–	–
Cc1c(C(=O)NC2Cc3ccccc3C2)cnn1-c1ccc(Cl)cc1 [Compound 341, 1-(4-CHLORO-PHENYL)-5-METHYL-1H-PYRAZOLE-4-CARBOXYLIC ACID INDAN-2-YLAMIDE]	22	–	2.5	–	–
O=C(NC1Cc2ccccc2C1)c1cc(F)c(Cl)cc1Cl [Compound 262, 2,4-DICHLORO-5-FLUORO-N-INDAN-2-YL-BENZAMIDE]	5.8	–	2.8	–	–
Cc1ccc2c(Cl)c(C(=O)NC3Cc4ccccc4C3)sc2c1 [Compound 332, 3-CHLORO-6-METHYL-BENZO[B]THIOPHENE-2-CARBOXYLIC ACID INDAN-2-YLAMIDE]	4	–	2	–	–
Nc1c(C(=O)NC2Cc3ccccc3C2)cnn1-c1ccccn1 [Compound 386A, 5-AMINO-1-PYRIDIN-2-YL-1H-PYRAZOLE-4-CARBOXYLIC ACID INDAN-2-YLAMIDE]	5.1	–	3.3	–	–
CCCC(=O)Nc1cccc(C(=O)NC2Cc3ccccc3C2)c1 [Compound 375, 3-BUTYRYLAMINO-N-INDAN-2-YL-BENZAMIDE]	8	–	2.3	–	–
O=C(NC1Cc2ccccc2C1)c1ccoc1 [Compound 296, FURAN-3-CARBOXYLIC ACID INDAN-2-YLAMIDE]	13	–	2.5	–	–
CC(C)(C)C(=O)Nc1cccc(C(=O)NC2Cc3ccccc3C2)c1 [Compound 380, 3-(2,2-DIMETHYL-PROPIONYLAMINO)-N-INDAN-2-YL-BENZAMIDE]	2.3	–	2.6	–	–
O=C(NC1Cc2cccc(C(F)(F)F)c2C1)c1ccc(F)cc1 (stereo not shown) [Compound 439, 4-FLUORO-N-(4-TRIFLUOROMETHYL-INDAN-2-YL)-BENZAMIDE]	8.9	–	2.6	–	–
O=C(NC1Cc2ccccc2C1)c1cccc(C(=O)c2ccccc2)c1 [Compound 287, 3-BENZOYL-N-INDAN-2-YL-BENZAMIDE]	13	–	2.9	–	–
O=C(NC1Cc2ccccc2C1)c1ccc(Cl)cc1 [Compound 69, 4-CHLORO-N-INDAN-2-YL-BENZAMIDE]	0.4	–	4.2	–	–
CSc1ccc(C(=O)NC2Cc3ccccc3C2)cc1 [Compound 292, N-INDAN-2-YL-4-METHYLSULFANYL-BENZAMIDE]	–	–	–	2.9	0.039
Cc1cc(C(=O)NC2Cc3ccccc3C2)ccc1Cl [Compound 27, 4-CHLORO-3-METHYL-N-INDAN-2-YL-BENZAMIDE]	0.2	–	3.6	–	–
Cc1cccc2c1CC(NC(=O)c1ccc(F)cc1)C2 (single isomer, unassigned; (-)) [Compound 1a, (−)-4-Fluoro-N-(4-methyl-indan-2-yl)-benzamide]	–	6	2.8	–	–
O=C(NC1Cc2ccccc2C1)c1cccc2ccccc12 [Compound 294, NAPHTHALENE-1-CARBOXYLIC ACID INDAN-2-YLAMIDE]	14	–	2.2	–	–
CCCCCc1ccc(C(=O)NC2Cc3ccccc3C2)cc1 [Compound 293, N-INDAN-2-YL-4-PENTYL-BENZAMIDE]	14	–	1.7	–	–

Further molecules by falling EC50 [2], results first:

EC50 [2] [µM]	EC50 (EC50 of transcription induction ratio, determined graphically, human endothelial cell line, 18 h incubation, read-out: EC-50) [µM]	Structure (SMILES)	maximal fold induction [1]	maximal fold induction (Homo sapiens, 18 h)	EC50 (Homo sapiens, Endothelial cell, 18 h) [µM]
37	–	CCc1sccc1C(=O)NC1Cc2ccccc2C1 [Compound 366, 2-ETHYL-THIOPHENE-3-CARBOXYLIC ACID INDAN-2-YLAMIDE]	2.5	–	–
26	–	Cc1ccc(F)c(C(=O)NC2Cc3ccccc3C2)c1Cl [Compound 346, 2-CHLORO-6-FLUORO-N-INDAN-2-YL-3-METHYL-BENZAMIDE]	2.6	–	–
23	–	CCCc1c(C(=O)NC2Cc3ccccc3C2)cnn1-c1ccc(Cl)cc1 [Compound 322, 1-(4-CHLORO-PHENYL)-5-PROPYL-1H-PYRAZOLE-4-CARBOXYLIC ACID INDAN-2-YLAMIDE]	2.3	–	–
16	–	O=C(NC1Cc2ccccc2C1)c1cc2cc(Cl)ccc2[nH]1 [Compound 315, 5-CHLORO-1H-INDOLE-2-CARBOXYLIC ACID INDAN-2-YLAMIDE]	2.2	–	–
12	–	O=C(NC1Cc2ccccc2C1)c1ccc(Cl)c(Cl)c1 [Compound 314, 3,4-DICHLORO-N-INDAN-2-YL-BENZAMIDE]	2.2	–	–
11	–	O=C(NC1Cc2cccc(I)c2C1)c1ccc(F)cc1 (stereo not shown) [Compound 408, 4-FLUORO-N-(4-IODO-INDAN-2-YL)-BENZAMIDE]	2.5	–	–
10	–	O=C(NC1Cc2ccccc2C1)c1c(F)ccc(F)c1Cl [Compound 360, 2-CHLORO-3,6-DIFLUORO-N-INDAN-2-YL-BENZAMIDE]	2.6	–	–
7	–	Cc1ccc(C(=O)NC2Cc3ccccc3C2)c(O)c1 [Compound 22, 2-HYDROXY-N-INDAN-2-YL-4-METHYL-BENZAMIDE]	2.1	–	–
4	–	O=C(NC1Cc2ccccc2C1)c1ccc(F)c(Br)c1 [Compound 33, 3-BROMO-4-FLUORO-N-INDAN-2-YL-BENZAMIDE]	3.3	–	–
2.8	–	CC(=O)Nc1cccc(C(=O)NC2Cc3ccccc3C2)c1Cl [Compound 267, 3-ACETYLAMINO-2-CHLORO-N-INDAN-2-YL-BENZAMIDE]	2.5	–	–
2.2	–	O=C(NC1Cc2ccccc2C1)c1sc2cccc(Cl)c2c1Cl [Compound 329, 3,4-DICHLORO-BENZO[B]THIOPHENE-2-CARBOXYLIC ACID INDAN-2-YLAMIDE]	1.5	–	–
2.1	–	Cc1cc(Br)c(C(=O)NC2Cc3ccccc3C2)s1 [Compound 364, 3-BROMO-5-METHYL-THIOPHENE-2-CARBOXYLIC ACID INDAN-2-YLAMIDE]	2.9	–	–
0.82	–	Cc1cc(C(=O)NC2Cc3ccccc3C2)c(C)n1Cc1ccncc1 [Compound 230, 2,5-DIMETHYL-1-PYRIDIN-4-YLMETHYL-1H-PYRROLE-3-CARBOXYLIC ACID INDAN-2-YLAMIDE]	4	–	–
0.559	–	O=C(NC1Cc2ccccc2C1)c1ccccc1Cl [Compound 275, 2-CHLORO-N-INDAN-2-YL-BENZAMIDE]	3	–	–
0.523	–	O=C(NC1Cc2ccccc2C1)c1ccc(Br)cc1F [Compound 350, 4-BROMO-2-FLUORO-N-INDAN-2-YL-BENZAMIDE]	2.9	–	–
0.157	–	O=C(NC1Cc2ccccc2C1)c1cccc(Cl)c1Cl [Compound 276, 2,3-DICHLORO-N-INDAN-2-YL-BENZAMIDE]	3	–	–

— patent publication US7713963B2, “Acylated indanyl amines and their use as pharmaceuticals” (sanofi-aventis Deutschland GmbH, priority 2001, dated 2010)
